This passage reports pest or weed control and chromatographic logP results from US8383139B2 (Bayer CropScience AG, priority 2008, dated 2013).

The subject of one data set is Septoria tritici. Description: Septoria tritici test (wheat)/protective. Conditions: Zymoseptoria tritici, 504 h, 500 ppm active substance, protective, evaluation 21 days after inoculation, read-out: degree of effectiveness. The class given is in vivo. As for the experimental part: • Solvent: 50 parts by weight of N,N-dimethylacetamide • Emulsifier: 1 part by weight of alkylaryl polyglycol ether (polyoxyethylene (16) tristearylphenyl ether) To prepare a suitable active substance composition, 1 part by weight of active substance is mixed with the given amounts of solvent and emulsifier and the concentrate is diluted to the desired concentration using water. For the testing of protective effectiveness, young plants are sprayed with the active substance composition at the application rate given. After the spray coating has dried on, the plants are sprayed with a suspension of spores of Septoria tritici. The plants remain in an incubation chamber at 20° C. and 100% relative humidity for 48 hours. The plants are afterwards placed under a transparent hood at 15° C. and 100% relative humidity for a further 60 hours. The plants are placed in a greenhouse at a temperature of approximately 15° C. and a relative humidity of 80%. Evaluation is carried out 21 days after the inoculation. In this connection, 0% means a degree of effectiveness corresponding to that of the control, while a degree of effectiveness of 100% means that no infestation is observed.

The next data set concerns Sphaerotheca fuliginea. Description: Sphaerotheca test (cucumber)/protective. Conditions: Podosphaera fuliginea, 168 h, 500 ppm active substance, protective, evaluation 7 days after inoculation, read-out: degree of effectiveness. The data set is classed as in vivo. The method, then:
• Solvents: 49 parts by weight of N,N-dimethylformamide • Emulsifier: 1 part by weight of alkylaryl polyglycol ether (polyoxyethylene (16) tristearylphenyl ether) To prepare a suitable active substance composition, 1 part by weight of active substance is mixed with the given amounts of solvents and emulsifier and the concentrate is diluted to the desired concentration using water. For the testing of protective effectiveness, young cucumber plants are sprayed with the active substance composition in the application rate given. One day after the treatment, the plants are inoculated with a suspension of spores of Sphaerotheca fuliginea. Subsequently, the plants are placed in a greenhouse at 70% relative humidity and at a temperature of 23° C. Evaluation is carried out 7 days after the inoculation. In this connection, 0% means a degree of effectiveness corresponding to that of the control, while a degree of effectiveness of 100% means that no infestation is observed.

Another data set deals with Puccinia triticina. Description: Puccinia triticina test (wheat)/protective. The class given is in vivo. To be noted: 192 h, 500 ppm active substance, protective, evaluation 8 days after inoculation, read-out: degree of effectiveness. The method, then: • Solvent: 50 parts by weight of N,N-dimethylacetamide • Emulsifier: 1 part by weight of alkylaryl polyglycol ether (polyoxyethylene (16) tristearylphenyl ether) To prepare a suitable active substance composition, 1 part by weight of active substance is mixed with the given amounts of solvent and emulsifier and the concentrate is diluted to the desired concentration using water. For the testing of protective effectiveness, young plants are sprayed with the active substance composition in the application rate given. After the spray coating has been dried on, the plants are sprayed with spores with a suspension of spores of Puccinia triticina. The plants remain in an incubation chamber at 20° C. and 100% relative humidity for 48 hours. The plants are placed in a greenhouse at a temperature of approximately 20° C. and a relative humidity of approximately 80%. Evaluation is carried out 8 days after the inoculation. In this connection, 0% means a degree of effectiveness corresponding to that of the control, while a degree of effectiveness of 100% means that no infestation is observed.

Another data set relates to Alternaria solani. Description: Alternaria test (tomato)/protective. The data set is classed as in vivo. To be noted: 72 h, 100 ppm active substance, protective, evaluation 3 days after inoculation, read-out: degree of effectiveness. The method, then: (§1) • Solvents: 24.5 parts by weight of acetone • 24.5 parts by weight of dimethylacetamide • Emulsifier: 1 part by weight of alkylaryl polyglycol ether (polyoxyethylene (16) tristearylphenyl ether)
(§2) To prepare a suitable active substance composition, 1 part by weight of active substance is mixed with the given amounts of solvents and emulsifier and the concentrate is diluted to the desired concentration using water.
For the testing of protective effectiveness, young plants are sprayed with the active substance composition in the application rate given. After the spray coating has been dried on, the plants are inoculated with an aqueous suspension of spores of Alternaria solani. The plants are then placed in an incubation chamber at approximately 20° C. and 100% relative humidity.
Evaluation is carried out 3 days after the inoculation. In this connection, 0% means a degree of effectiveness corresponding to that of the control, while a degree of effectiveness of 100% means that no infestation is observed.

A further data set concerns Uromyces appendiculatus. As to the kind of experiment: Uromyces test (beans)/protective. The data set is classed as in vivo. To be noted: 240 h, 100 ppm active substance, protective, evaluation 10 days after inoculation, read-out: degree of effectiveness. As for the experimental part:
as §1, §2
For the testing of protective effectiveness, young plants are sprayed with the active substance composition in the application rate given. After the spray coating has been dried on, the plants are inoculated with an aqueous suspension of the spores of the bean rust pathogen Uromyces appendiculatus and then remain in an incubation chamber at approximately 20° C. and 100% relative humidity for 1 day.
The plants are then placed in a greenhouse at approximately 21° C. and a relative humidity of approximately 90%.
Evaluation is carried out 10 days after the inoculation. In this connection, 0% means a degree of effectiveness corresponding to that of the control, while a degree of effectiveness of 100% means that no infestation is observed.

The nature of data set [1]: log P by HPLC on reversed-phase columns (C 18), EEC Directive 79/831 Annex V.A8. The class given is physicochemical. Conditions: reversed-phase C18 HPLC column, pH 2.3, [a] HPLC, acid region pH 2.3, 0.1% aqueous phosphoric acid and acetonitrile; read-out: log p.

With `Cc1cc(Oc2nc(C(C)c3ccc(Cl)cc3)ns2)c(C)cc1N=CN(C)C(C)C` (stereo not drawn) [Example 19, N′-[4-({3-[1-(4-chlorophenyl)ethyl]-1,2,4-thiadiazol-5-yl}oxy)-2,5-dimethylphenyl]-N-methyl-N-(propan-2-yl)imidoformamide], the pest or weed control at 500 ppm with Septoria tritici, with Sphaerotheca fuliginea and in the data set on Puccinia triticina was at least 70% each time. Further, the pest or weed control at 100 ppm in the data set on Alternaria solani and in the data set on Uromyces appendiculatus was at least 70% each time. Further, the chromatographic logP in data set [1] came out at 2.46.
Consider `Cc1cc(Oc2nc(Cc3ccccc3)ns2)c(C)cc1N=CN1CCCCC1` [Example 36, 4-[(3-benzyl-1,2,4-thiadiazol-5-yl)oxy]-2,5-dimethyl-N-(piperidin-1-ylmethylidene)aniline], for which the pest or weed control at 500 ppm in the data set with Septoria tritici, in the data set with Sphaerotheca fuliginea and in the data set on Puccinia triticina was at least 70% each time. For the same compound, the pest or weed control at 100 ppm in the data set on Alternaria solani and with Uromyces appendiculatus was at least 70% throughout. Further, in data set [1], the chromatographic logP was 1.91.
Consider `CCC(c1ccccc1)c1nsc(Oc2cc(C)c(N=CN(C)CC)cc2C)n1` (stereo not drawn) [Example 6, N′-(2,5-dimethyl-4-{[3-(1-phenylpropyl)-1,2,4-thiadiazol-5-yl]oxy}phenyl)-N-ethyl-N-methylimidoformamide], for which the pest or weed control at 500 ppm in the data set on Septoria tritici, with Sphaerotheca fuliginea and with Puccinia triticina was at least 70% throughout. The pest or weed control at 100 ppm in the data set on Alternaria solani and in the data set with Uromyces appendiculatus was at least 70% throughout. The chromatographic logP in data set [1] worked out at 2.08.
Turning to `Cc1cc(Oc2nc(C(C)c3ccccc3)ns2)c(C)cc1N=CN1CCCCC1` (stereo not drawn) [Example 8, 2,5-dimethyl-4-{[3-(1-phenylethyl)-1,2,4-thiadiazol-5-yl]oxy}-N-(piperidin-1-ylmethylidene)aniline], the pest or weed control at 500 ppm in the data set on Septoria tritici, in the data set on Sphaerotheca fuliginea and in the data set on Puccinia triticina was at least 70% in each case. The pest or weed control at 100 ppm in the data set on Alternaria solani and with Uromyces appendiculatus was at least 70% each time. For the same compound, the chromatographic logP in data set [1] was 1.95.
As for `Cc1cc(Oc2nc(Cc3ccc(Cl)c(Cl)c3)ns2)c(C)cc1N=CN(C)C(C)C` [Example 47, N′-(4-{[3-(3,4-dichlorobenzyl)-1,2,4-thiadiazol-5-yl]oxy}-2,5-dimethylphenyl)-N-methyl-N-(propan-2-yl)imidoformamide], the pest or weed control at 500 ppm in the data set with Septoria tritici, in the data set with Sphaerotheca fuliginea and in the data set with Puccinia triticina was at least 70% each time. The pest or weed control at 100 ppm in the data set on Alternaria solani and in the data set on Uromyces appendiculatus was at least 70% in each case. Further, in data set [1], the chromatographic logP turned out to be 2.35.
With `CCN(C)C=Nc1cc(C)c(Oc2nc(Cc3ccccc3)ns2)cc1C` [Example 23, N′-{4-[(3-benzyl-1,2,4-thiadiazol-5-yl)oxy]-2,5-dimethylphenyl}-N-ethyl-N-methylimidoformamide], the pest or weed control at 500 ppm in the data set on Septoria tritici, with Sphaerotheca fuliginea and in the data set with Puccinia triticina was at least 70% in each case. Also, the pest or weed control at 100 ppm in the data set on Alternaria solani and with Uromyces appendiculatus was at least 70% in each case. For the same compound, the chromatographic logP in data set [1] turned out to be 1.71.
As for `CCN(C)C=Nc1cc(C)c(Oc2nc(Cc3ccccc3C(F)(F)F)ns2)cc1C` [Example 42, N′-[2,5-dimethyl-4-({3-[2-(trifluoromethyl)benzyl]-1,2,4-thiadiazol-5-yl}oxy)phenyl]-N-ethyl-N-methylimidoformamide], the pest or weed control at 500 ppm in the data set on Septoria tritici, in the data set with Sphaerotheca fuliginea and with Puccinia triticina was at least 70% each time. For the same compound, the pest or weed control at 100 ppm in the data set with Alternaria solani and in the data set with Uromyces appendiculatus was at least 70% each time. Moreover, in data set [1], the chromatographic logP turned out to be 2.1.
On to `Cc1cc(Oc2nc(C(C)(C)c3ccc(Cl)cc3)ns2)c(C)cc1N=CN1CCCCC1` [Example 26, 4-({3-[2-(4-chlorophenyl)propan-2-yl]-1,2,4-thiadiazol-5-yl}oxy)-2,5-dimethyl-N-(piperidin-1-ylmethylidene)aniline], for which the pest or weed control at 500 ppm in the data set on Septoria tritici, with Sphaerotheca fuliginea and with Puccinia triticina was at least 70% each time. Besides, the pest or weed control at 100 ppm in the data set with Alternaria solani and with Uromyces appendiculatus was at least 70% in each case. The chromatographic logP in data set [1] was determined as 2.76.
Take `CCN(C)C=Nc1cc(C)c(Oc2nc(Cc3ccc(Cl)c(Cl)c3)ns2)cc1C` [Example 51, N′-(4-{[3-(3,4-dichlorobenzyl)-1,2,4-thiadiazol-5-yl]oxy}-2,5-dimethylphenyl)-N-ethyl-N-methylimidoformamide]: the pest or weed control at 500 ppm in the data set with Septoria tritici, with Sphaerotheca fuliginea and with Puccinia triticina was at least 70% throughout. The pest or weed control at 100 ppm in the data set with Alternaria solani and in the data set on Uromyces appendiculatus was at least 70% throughout. Moreover, the chromatographic logP in data set [1] came out at 2.3.
In the case of `CCN(C)C=Nc1cc(C)c(Oc2nc(Cc3c(Cl)cccc3Cl)ns2)cc1C` [Example 15, N′-(4-{[3-(2,6-dichlorobenzyl)-1,2,4-thiadiazol-5-yl]oxy}-2,5-dimethylphenyl)-N-ethyl-N-methylimidoformamide], the pest or weed control at 500 ppm with Septoria tritici, in the data set with Sphaerotheca fuliginea and with Puccinia triticina was at least 70% throughout. Also, the pest or weed control at 100 ppm with Alternaria solani and in the data set on Uromyces appendiculatus was at least 70% in each case. The chromatographic logP in data set [1] stood at 2.05.
As to `CCC(c1ccccc1)c1nsc(Oc2cc(C)c(N=CN3CCCCC3)cc2C)n1` (stereo not drawn) [Example 7, 2,5-dimethyl-4-{[3-(1-phenylpropyl)-1,2,4-thiadiazol-5-yl]oxy}-N-(piperidin-1-ylmethylidene)aniline], the pest or weed control at 500 ppm in the data set on Septoria tritici, in the data set on Sphaerotheca fuliginea and in the data set on Puccinia triticina was at least 70% each time. Moreover, the pest or weed control at 100 ppm in the data set with Alternaria solani and in the data set on Uromyces appendiculatus was at least 70% each time. The chromatographic logP in data set [1] came to 2.21.
Consider `CCN(C)C=Nc1cc(C)c(Oc2nc(Cc3cccc(C(F)(F)F)c3)ns2)cc1C` [Example 10, N′-[2,5-dimethyl-4-({3-[3-(trifluoromethyl)benzyl]-1,2,4-thiadiazol-5-yl}oxy)phenyl]-N-ethyl-N-methylimidoformamide], for which the pest or weed control at 500 ppm in the data set with Septoria tritici, in the data set on Sphaerotheca fuliginea and in the data set on Puccinia triticina was at least 70% each time. In addition, the pest or weed control at 100 ppm with Alternaria solani and in the data set with Uromyces appendiculatus was at least 70% in each case. Moreover, the chromatographic logP in data set [1] worked out at 2.05.
